The record followed here is patent publication US20080187492A1, “Drosophila Models For Diseases Affecting Learning and Memory” (priority 2004, published 2008).

SMILES strings stand for the structures.

Test [1] concerns Drosophila expressing mutant huntington protein in the MBs. Briefly: Naive courtship and short-term memory in Drosophila expressing mutant huntington in the MBs. It is filed as in vivo. To be noted: 5 day old flies; p<0.05. The source says:
Both HDAC inhibition and CBP overexpression should in theory promote an increase CREB mediated gene transcription. […] Since we knew that we could use a PDE-4 inhibitor or mGluR antagonists or lithium to increase cAMP levels thereby promoting CREB mediated transcription, we decided to see if these compounds could restore the memory deficit in Drosophila expressing mutant huntington in the MBs.

For test [2], the system named is flies heterozygous for the Drosophila presenilin gene. Briefly: Learning during training in Drosophila model of Alzheimer's disease with reduced presenilin. It is filed as in vivo. Set-up: age dependent impairment in learning during training: dose or concentration left out as unconfirmed. An excerpt:
FIG. 10 is a graph showing the effect of MPEP on learning during training in a Drosophila model of Alzheimer's disease expressing reduced amounts of presenilin. All flies have reduced presenilin level. Black bars are 5 day old flies raised on kept on control food (N=18) which display learning during training (p<0.05). […] This impairment is prevented by treatment with MPEP.
Using methods similar to those described in Examples 1 and 2, we evaluated the effect of MPEP on various aspects of learning and memory in a Drosophila model of Alzheimer's disease with reduced expression of presenilin.
Flies in all three groups are heterozygous for the Drosophila presenilin gene. Each group has one wild type presenilin gene and one null presenilin gene, resulting from a deletion at the presenilin locus or a mutation at the presenilin locus. Learning during training was assayed in flies kept on control food until tested at five days of age, kept on control food until tested at 30 days of age or kept on control food for the first five days after eclosion then switched to food containing 200 μg/ml of MPEP until being moved back to control food the day before being tested at 30 days of age. […] This age-dependent deficit in learning during training is apparent in ten mutant presenilin Drosophila lines evaluated. In flies treated with MPEP, learning during training was restored at 30 days of age (p<0.05).

Test [3] relates to Rescue (dFMR1-3+wild type rescue fragment) flies. Briefly: Conditioned courtship: learning during training, Rescue flies. To be noted: MPEP 200 μg/ml in development, adulthood or both. It is filed as in vivo, Drosophila melanogaster. The source says:
(§1) The role of dFMR1 in learning during training and immediate recall. The flies used were w1118 (the background stock from which the mutation was derived), dFMR1-3 (the mutation lacking dFMR1 expression), Rescue (dFMR1-3+wild type rescue fragment) and FS (frame shift, dFMR1-3+frame shifted rescue fragment) all from Dockendorff et al, 2002. To assess learning during training male flies are placed in a training chamber with a previously mated female for one hour. The amount of time the male spent courting in the initial ten-minute interval was compared to the amount of time the male spent courting the female target in the final ten-minute interval (FIG. 1). […] It is important to note that the level of courtship behavior towards the previously mated female is similar between the two mutant groups and the w1118 and Rescue groups. […] This is important to note, because without actively courting, the male fly cannot be trained (Tompkins et al. 1982; 1983).
(§2) Learning during training. In order to assess learning during training, the male flies were placed in a training chamber with a previously mated female for one hour. The amount of time the male spent courting in the first ten-minute interval was compared to the amount of time the male spent courting the female target in the last ten-minute interval (FIG. 4A).
(§3) Behavioral Training and Testing. […]

Test [4] deals with FS (dFMR1-3+frame shifted rescue fragment) flies. Nature of the test: Quality of naive courtship (progress to later courtship steps), FS flies. It is filed as in vivo, Drosophila melanogaster. As to the method:
In order to determine if MPEP can get into the Drosophila central nervous system (CNS) through feeding behavior, we mixed MPEP into the food at a concentration of 1,000 μg/ml (433.0 μM). Males were raised on CT food and then placed on either CT or M food. Naive males were placed in the training chamber for one hour with no female, and then placed with a virgin target female for a ten-minute interval. The naive courtship behavior was reduced by high MPEP concentration in Rescue (p<0.0001) and FS (p<0.0005) lines, and it was depressed to similar levels by high MPEP treatment in the Rescue and FS groups (FIG. 2A). […] FIG. 2B dissects the steps involved in naive courtship behavior. […] Lowering the dose of MPEP and examining naive courtship. We next decided to try a lower dose of MPEP to 200 μg/ml (86.6 μM) mixed into the food of the Drosophila. In these experiments flies were placed on either CT or M food in the larval stage and then placed on either CT of M food within four hours of eclosion. […] Therefore giving this drug in adulthood only is effective in enhancing naive courtship behavior. […] The MPEP in development can rescue the naive courtship phenotype regardless of whether or not the flies receive it as adults. Further analysis of the quality of courtship that was performed by naive males was assessed by binning the number of males to advance to a particular phase of courtship for each genotype and pharmacologic treatment (FIG. 3B).

For test [5] the test system is unchanged. Briefly: Conditioned courtship: learning during training, FS flies. The class given is in vivo, Drosophila melanogaster. To be noted: MPEP 200 μg/ml in development, adulthood or both.
From the text: as §1, §2, §3

Regarding `N[C@](CC1c2ccccc2Oc2ccccc21)(C(=O)O)[C@H]1C[C@@H]1C(=O)O` [LY341495, (2S)-2-amino-2-[(1S,2S)-2-carboxycycloprop-1-yl]-3-(xanth-9-yl) propionic acid], the short-term memory result in test [1] was “restored short-term memory”.
Regarding `Cc1cccc(C#Cc2ccccc2)n1` [MPEP, 2-methyl-6-(phenylethynyl)pyridine], the “age dependent impairment in learning during training” value in test [2] (30 day old, food supplemented MPEP from day 5) was “prevented”. The learning during training entry in test [2] (30 days of age, food containing 200 μg/ml of MPEP from day 5, p<0.05) is “restored”; in test [3] (5 day old), “does not adversely affect learning during training”; in test [5] (20-day-old), “able to restore learning during training”; in test [5] (5 day old), “does not adversely affect learning during training”. For the same molecule, the “learning during training (initial vs final courtship levels)” value in test [3] (20-day-old) is given as “significant depression from the initial to final intervals”. For the same molecule, the “quality of naive courtship” value in test [4] (20-day-old, MPEP (86.6 μM)) is recorded as “in adulthood, but not in development alone, MPEP treatment can affect the quality of naive courtship behavior”; in test [4] (5 day old, MPEP 200 μg/ml in development or adulthood) it was “can affect the quality of naive courtship behavior”. In test [4] (5 day old, MPEP 1,000 μg/ml in adulthood, relative to CT-CT Rescue), the “steps involved in naive courtship behavior” value is “failed to progress to later steps in courtship behavior”.
